Source: patent US8697419B2, “Compositions and methods for culturing spirochetes” (Advanced Laboratory Services, Inc., priority 2011, dated 2014)

How the values were obtained:
Type in all cases: cell-based
Borrelia burgdorferi [1] = assay: Effect of DTT concentration on spirochete growth in BSK-H medium, dark-field microscopy
Method: (§1) The cells were cultured for 6 days with different concentration of rabbit serum, DTT and antibiotics, as depicted, and cellular growth was evaluated by direct cell counting of motile spirochetes using dark field microscopy. Each set of data represents three independent experiments (mean±SD). Statistical significance was determined using two-sample paired t-test. The data *p-values<0.05 indicates statistical significance as related to control.
The effect of the addition of a reducing agent, such as DTT, to the culture media was also evaluated. To determine the effect of DTT concentration on spirochete growth, Borrelia burgdorferi were cultured in BSK-H medium with 6%, 12%, and 20% rabbit serum and either 0.145 μg/ml DTT or 100 μg/ml DTT. The spirochetes were incubated in a CO2 incubator at 34° C. with 5% CO2 and 100% humidity for 6 days, at which time spirochete growth was evaluated by dark-field microscopy. […] See, FIG. 2B. […] See, FIG. 2B, p=0.0002.

Borrelia burgdorferi [2] = assay: Effect of magnesium concentration on spirochete growth in BSK-H medium; details: 7.5×10^−2 M vs 7.5×10^−3 M MgCl2, 6% rabbit serum, 6 days, data not shown
Method: To determine the effect of magnesium concentration on spirochete growth, Borrelia burgdorferi were cultured in BSK-H medium with 6% rabbit serum and either 7.5×10^−2 M MgCl2, or 7.5×10^−3 M MgCl2. The spirochetes were incubated in a CO2 incubator at 32° C. with 5% CO2 and 100% humidity for 6 days, at which time spirochete growth was evaluated by dark-field microscopy.

Borrelia burgdorferi [3] = assay: Effect of antibiotic concentration on spirochete growth in BSK-H medium, dark-field microscopy
Method: as §1
To determine the effect of antibiotic concentration on spirochete growth, Borrelia burgdorferi were cultured in BSK-H medium containing 12% rabbit serum, 100 μg/ml DTT and one of the following antibiotics: 0.5 μg/ml rifampicin, 50 μg/ml rifampicin, a 5 μg/ml rifampicin disc (resulting in final concentration of 0.4 μg/ml), 50 μg/ml phosphomycin, 100 μg/ml phosphomycin, or the combination of 50 μg/ml rifampicin and 50 μg/ml phosphomycin. The spirochetes were incubated in a CO2 incubator at 34° C. with 5% CO2 and 100% humidity for 6 days, at which time spirochete growth was evaluated by dark-field microscopy. […] See, FIG. 2C.

For `O[C@H](CS)[C@H](O)CS` (racemic) [DTT, dithiothreitol], the “spirochete yield, 100 μg/ml DTT relative to 0.145 μg/ml DTT” value (Borrelia burgdorferi [1]; BSK-H with 12% rabbit serum, p=0.0002) was “twice as many spirochetes” and the spirochete yields (Borrelia burgdorferi [1]; DTT (0.145 or 100 μg/ml) included in BSK-H culture medium, 6 days) was “increased spirochete yields”.

In the case of `[Cl-].[Cl-].[Mg+2]` [MgCl2], the spirochete growth (Borrelia burgdorferi [2]) was “No significant differences in spirochete growth”.

`C[C@@H]1O[C@@H]1P(=O)(O)O` [phosphomycin] was tested, and the spirochete yield (Borrelia burgdorferi [3]; 50 or 100 μg/ml phosphomycin, BSK-H, 12% rabbit serum, 100 μg/ml DTT, 6 days, 34° C.) was “significantly decreased spirochete yield” and the spirochete yields (Borrelia burgdorferi [3]; lower concentrations of phosphomycin (e.g., 10 and 50 μg/ml), data not shown) was “significantly decreased spirochete yields”.
